Where “and” joins values, the source holds several entries; their conditions need not be identical. Equal values may be shown once. Non-standard residues stand in square brackets, D forms with d. Residues, ends and D or L forms follow the SMILES beside them. pS = N[C@@H](COP(=O)(O)O)C(=O)O
How the values were obtained:
Assay type in all cases: binding
Clathrin NTD [1] = biological target: T1, Clathrin NTD (Homo sapiens, UniProt Q00610); assay: FP displacement assay, clathrin NTD
T1 construct: GST (cleaved yes); made in house; host or cells: Escherichia coli BL21-Gold(DE3)
T1 sequence (Q00610 1-364): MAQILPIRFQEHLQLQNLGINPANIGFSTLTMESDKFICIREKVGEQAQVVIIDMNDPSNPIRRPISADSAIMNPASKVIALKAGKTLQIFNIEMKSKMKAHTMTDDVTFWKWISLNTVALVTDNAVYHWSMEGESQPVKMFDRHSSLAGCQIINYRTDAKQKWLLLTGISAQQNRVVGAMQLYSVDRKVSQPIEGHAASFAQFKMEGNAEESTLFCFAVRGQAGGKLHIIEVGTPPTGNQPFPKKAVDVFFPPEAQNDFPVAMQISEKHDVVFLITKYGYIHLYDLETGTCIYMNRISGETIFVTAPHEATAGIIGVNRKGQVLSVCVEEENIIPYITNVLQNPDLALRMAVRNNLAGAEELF
Description: (§1) FP experiments were performed as described previously (Kliche et al, [2021]). Shortly, in order to monitor the binding event, FITC‐labelled peptides were used (excitation 495 nm, emission: 535 nm) and the FP signal was recorded in mP on a SpectraMax iD5 Multi‐Mode Microplate Reader (Molecular Devices) by measuring the emitted light in two angels. The measurements were performed at room temperature and prepared in nonbinding black half area 96‐well microplates (Corning®; 50 μl/well). For measuring direct binding, that is saturation curves, a 1:1 dilution series of protein domain (25 μl/well) was generated in 50 mM sodium phosphate buffer pH 7.4 and the measurement performed with 5 nM FITC‐labelled peptide (25 μl/well). The buffer‐corrected values were subsequently plotted with PRISM and fitted to the quadratic equation (Gianni et al, [2005]).
(§2) The 1:1 dilution series in this experiment was performed with the unlabelled peptide in 50 mM sodium phosphate buffer pH 7.4, so that each well‐contained unlabelled peptide (25 μl) at a certain concentration and pre‐formed complex (25 μl). The KD values of this indirectly monitored binding event were calculated as described previously (Nikolovska‐Coleska et al, [2004]). All measurements were at least in technical triplicates as well as biological duplicates when indicated. An amplitude shift between repeat measurements in the displacement experiments was occasionally observed due to variations in the protein preparations. If that was the case, the “active” protein concentration was back‐calculated according to the quadratic equation from the saturation curves performed in parallel. By comparing the active protein concentrations in the complex between different protein preparations, the amplitude was normalised.

Clathrin NTD [2] = biological target: T1, Clathrin NTD; assay: ITC, clathrin NTD; conditions: ITC (iTC200), 50 mM sodium phosphate pH 7.4, 1 mM DTT; average of the runs, at least technical triplicates
14-3-3 theta = biological target: T2, 14-3-3 theta (Homo sapiens, UniProt P27348); assay: FP displacement assay, 14-3-3 theta; conditions: probe FITC-2BTP; technical triplicates
T2 construct: GST (cleaved yes); made in house; host or cells: Escherichia coli BL21-Gold(DE3)
T2 sequence (P27348 1-245): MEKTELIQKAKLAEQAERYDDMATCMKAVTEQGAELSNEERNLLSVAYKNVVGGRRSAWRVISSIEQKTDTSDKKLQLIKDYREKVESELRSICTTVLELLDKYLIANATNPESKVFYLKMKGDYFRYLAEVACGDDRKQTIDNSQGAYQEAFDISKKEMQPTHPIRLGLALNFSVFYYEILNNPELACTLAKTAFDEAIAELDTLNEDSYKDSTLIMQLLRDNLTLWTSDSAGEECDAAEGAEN
Description: as §1, §2

AP2 μ2 = biological target: T3, AP2 μ2 (Homo sapiens, UniProt Q96CW1); assay: FP displacement assay, AP2 μ2; conditions: probe FITC-ATG9A 5 nM, 50 mM sodium phosphate pH 7.4, room temperature, at least three technical replicates, read-out: KD values ± SEM
T3 construct: AP2_Mu__Q96CW1_160_435; GST (cleaved yes); made in house; host or cells: Escherichia coli BL21-Gold(DE3)
T3 sequence (Q96CW1 160-435): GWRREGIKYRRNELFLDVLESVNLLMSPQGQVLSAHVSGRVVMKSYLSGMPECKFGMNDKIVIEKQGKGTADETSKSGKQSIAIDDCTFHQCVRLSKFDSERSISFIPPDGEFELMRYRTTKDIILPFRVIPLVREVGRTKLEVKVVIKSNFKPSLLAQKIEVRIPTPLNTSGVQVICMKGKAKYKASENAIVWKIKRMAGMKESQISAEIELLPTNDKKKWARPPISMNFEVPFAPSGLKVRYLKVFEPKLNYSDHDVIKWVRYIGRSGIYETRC
Description: as §1, §2

Row | Compound | Kd (Clathrin NTD [1]) [µM] | Kd (Clathrin NTD [2]) | binding in FP displacement experiment (14-3-3 theta) | Kd (AP2 μ2) [µM] | also measured
1 | CC[C@H](C)[C@H](NC(=O)[C@H](CC(C)C)NC(=O)[C@H](CC(N)=O)NC(=O)CNC(=O)CNC(=O)[C@H](Cc1ccc(O)cc1)NC(C)=O)C(=O)N[C@H](C(=O)N[C@@H](Cc1ccccc1)C(=O)N[C@@H](CCC(=O)O)C(=O)N1CCC[C@H]1C(=O)N[C@@H](CC(C)C)C(=O)N[C@@H](CCC(N)=O)C(=O)N1CCC[C@H]1C(=O)NCC(=O)N[C@@H](CCC(=O)O)C(=O)N[C@@H](Cc1ccccc1)C(N)=O)[C@@H](C)O [HURP832–846 E] (Ac-YGGNLITFEPLQPGEF-NH2) | 23 ± 2 | 22 µM |  |  | 
2 | H3COC-DMYALTRGSS(E/pS)LADQRK-NH2 [S375E TOM1_366–382, phosphomimetic TOM1 366-382 peptide] |  |  | no binding |  | 
3 | H3COC-DMYALTRGSS(E/pS)LADQRK-NH2 [S375 TOM1_366–382, wild-type TOM1 366-382 (F368Y) peptide] |  |  | no binding |  | 
4 | CC[C@H](C)[C@H](NC(=O)[C@@H](NC(=O)[C@@H]1CCCN1C(=O)[C@H](COP(=O)(O)O)NC(=O)[C@H](CO)NC(=O)[C@H](C)NC(=O)[C@@H]1CCCN1C(=O)[C@H](CCSC)NC(=O)[C@@H]1CCCN1C(=O)[C@H](CCC(N)=O)NC(=O)[C@H](Cc1ccc(O)cc1)NC(=O)[C@@H]1CCCN1C(=O)[C@@H](NC(=O)[C@@H](NC(=O)[C@H](CCSC)NC(C)=O)[C@@H](C)O)[C@@H](C)CC)C(C)C)C(=O)N[C@@H](CS)C(N)=O [PCBP1_179–194 pS] (Ac-MTIPYQPMPAS[pS]PVIC-NH2) |  |  |  | 0.67 ± 0.04 | 
5 | CC[C@H](C)[C@H](NC(=O)[C@H](CC(C)C)NC(=O)[C@H](CC(N)=O)NC(=O)CNC(=O)CNC(=O)[C@H](Cc1ccc(O)cc1)NC(C)=O)C(=O)N[C@H](C(=O)N[C@@H](Cc1ccccc1)C(=O)N[C@@H](COP(=O)(O)O)C(=O)N1CCC[C@H]1C(=O)N[C@@H](CC(C)C)C(=O)N[C@@H](CCC(N)=O)C(=O)N1CCC[C@H]1C(=O)NCC(=O)N[C@@H](CCC(=O)O)C(=O)N[C@@H](Cc1ccccc1)C(N)=O)[C@@H](C)O [HURP832–846 pS] (Ac-YGGNLITF[pS]PLQPGEF-NH2) | < 3 | 5 µM and 3 µM |  |  | IC50 (Clathrin NTD [1]; Fig 6A, clathrin NTD, FP displacement, two to three technical replicates per protein preparation, 2 independent preparations, read-out: IC50 values of displacement curves, with SEM): 11 ± 4 µM
6 | CC(=O)N[C@@H](Cc1ccccc1)C(=O)N1CCC[C@H]1C(=O)N[C@@H](CO)C(=O)N[C@@H](COP(=O)(O)O)C(=O)N[C@@H](Cc1ccc(O)cc1)C(=O)N[C@H](C(=O)N[C@@H](CCCCN)C(=O)N[C@@H](CC(C)C)C(=O)N[C@@H](CC(C)C)C(=O)N[C@@H](CCC(=O)O)C(=O)N[C@@H](CCC(=O)O)C(=O)N[C@@H](CC(N)=O)C(=O)N[C@@H](CCC(=O)O)C(=O)N[C@H](C(=O)N[C@@H](CCC(=O)O)C(=O)N[C@@H](C)C(N)=O)[C@@H](C)O)[C@@H](C)O [BAIAPL1_392–407 pS] (Ac-FPS[pS]YTKLLEENETEA-NH2) |  |  |  | 0.93 ± 0.01 | 
7 | CC[C@H](C)[C@H](NC(=O)[C@H](CC(C)C)NC(=O)[C@H](CC(N)=O)NC(=O)CNC(=O)CNC(=O)[C@H](Cc1ccc(O)cc1)NC(C)=O)C(=O)N[C@H](C(=O)N[C@@H](Cc1ccccc1)C(=O)N[C@@H](CO)C(=O)N1CCC[C@H]1C(=O)N[C@@H](CC(C)C)C(=O)N[C@@H](CCC(N)=O)C(=O)N1CCC[C@H]1C(=O)NCC(=O)N[C@@H](CCC(=O)O)C(=O)N[C@@H](Cc1ccccc1)C(N)=O)[C@@H](C)O [HURP832–846 wt] (Ac-YGGNLITFSPLQPGEF-NH2) | 134 ± 16 | 266 µM |  |  | 
8 | CC(=O)N[C@@H](Cc1ccccc1)C(=O)N1CCC[C@H]1C(=O)N[C@@H](CO)C(=O)N[C@@H](CO)C(=O)N[C@@H](Cc1ccc(O)cc1)C(=O)N[C@H](C(=O)N[C@@H](CCCCN)C(=O)N[C@@H](CC(C)C)C(=O)N[C@@H](CC(C)C)C(=O)N[C@@H](CCC(=O)O)C(=O)N[C@@H](CCC(=O)O)C(=O)N[C@@H](CC(N)=O)C(=O)N[C@@H](CCC(=O)O)C(=O)N[C@H](C(=O)N[C@@H](CCC(=O)O)C(=O)N[C@@H](C)C(N)=O)[C@@H](C)O)[C@@H](C)O [BAIAPL1_392–407 wt] (Ac-FPSSYTKLLEENETEA-NH2) |  |  |  | 1.29 ± 0.06 | 
9 | H3COC-DMYALTRGSS(E/pS)LADQRK-NH2 [pS375 TOM1_366–382, phosphorylated TOM1 366-382 peptide] |  |  | weak affinity |  | 

From PMC10333884, “Large‐scale phosphomimetic screening identifies phospho‐modulated motif‐based protein interactions” (Molecular Systems Biology, 2023)
